{"source": "patent EP0927178B1", "about": "“TRICYCLIC COMPOUNDS USEFUL FOR INHIBITION OF G-PROTEIN FUNCTION AND FOR TREATMENT OF PROLIFERATIVE DISEASES” (SCHERING CORPORATION, priority 1996, dated 1998)", "tested_on": "COS Cell", "test": "COS Cell IC50 (Cell-Based Assay)", "settings": "procedure of WO 95/10516", "protocol": "FPT IC50 (inhibition of farnesyl protein transferase, in vitro enzyme assay) and COS Cell IC50 (Cell-Based Assay) were determined following the assay procedures described in WO 95/10516, published April 20, 1995. GGPT IC50 (inhibition of geranylgeranyl protein transferase, in vitro enzyme assay), Cell Mat Assay, and anti-tumor activity (in vivo anti-tumor studies) could be determined by the assay procedures described in WO 95/10516. The disclosure of WO 95/10516 is incorporated herein by reference thereto."}
{"smiles": "NC(=O)N1CC[C@@H](CC(=O)N2CCC(C3c4ncc(Br)cc4CCc4cc(Cl)cc(Cl)c43)CC2)C1", "note": "(stereo partly drawn) [Example 2, 3(S) -[2-(4-(3-bromo-8,10-dichloro-6-11-dihydro-5-H-benzo[5,6]-cyclohepta[1,2-b]pyridin-11-yl)-1-piperidinyl]-2-oxoethyl]-1-pyrrolidinecarboxamide]", "values": [{"measurement": "IC50", "value": 30, "unit": "nM"}]}
